By Kd is commonly meant the equilibrium constant for the complex coming apart.

Here are results for 19 compounds from article PMC3189207, “DomPep—A General Method for Predicting Modular Domain-Mediated Protein-Protein Interactions” (PLoS ONE, 2011).

One assay has as its target T1, Scrib PDZ-1 domain (Homo sapiens, UniProt Q14160).
T1 construct: ROC curves of DomPep prediction for the three Scrib PDZ-1/2/3 domains
The experiment in a line: In-solution fluorescence polarization binding of peptides to Scrib PDZ1. To be noted: Kd value of 100 µM applied as binding cutoff, NB without definition, read-out: Kd (µM) PDZ1. (In general: In fluorescence polarisation assays a small probe gives low polarisation when free and higher when bound to something large.)

The target of the next assay is T2, Scrib PDZ-2 domain (Homo sapiens, UniProt Q14160).
T2 construct: ROC curves of DomPep prediction for the three Scrib PDZ-1/2/3 domains
T2 sequence (Q14160 862-950 limits assumed): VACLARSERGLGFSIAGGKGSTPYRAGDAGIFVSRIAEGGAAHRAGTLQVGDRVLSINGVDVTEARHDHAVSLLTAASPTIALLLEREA
The experiment in a line: In-solution fluorescence polarization binding of peptides to Scrib PDZ2. The settings on record: Kd value of 100 µM applied as binding cutoff, NB without definition, read-out: Kd (µM) PDZ2.

For another assay, the target named is T3, Scrib PDZ-3 domain (Homo sapiens, UniProt Q14160).
T3 construct: ROC curves of DomPep prediction for the three Scrib PDZ-1/2/3 domains
T3 sequence (Q14160 1004-1093 limits assumed): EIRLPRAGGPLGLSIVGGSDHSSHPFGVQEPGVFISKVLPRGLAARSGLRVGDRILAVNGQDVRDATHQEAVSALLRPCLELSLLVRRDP
The experiment in a line: In-solution fluorescence polarization binding of peptides to Scrib PDZ3. To be noted: Kd value of 100 µM applied as binding cutoff, NB without definition. An excerpt:
Because DomPep compared favorably to MDSM in identifying ligands for a PDZ domain included in the training set and to SPSSM in identifying binding peptides for an untrained PDZ domain, we next tested it whether it could reliably PPIs mediated by a PDZ domain on the genome scale. To this end, we employed three DomPep models to predict interactions between the Scrib PDZ domains and human proteins from the Swiss-Prot protein database. The three prediction models, which were generated for the mouse Scrib PDZ-1, PDZ-2 and PDZ-3 domains, were trained with 6, 5 and 30 positive peptide, respectively (Table S1). Searching the protein database with these models yielded a list of potential PDZ ligands. […] This experiment identified 14, 14, and 38 positives for the PDZ-1, -2, and -3 domains, respectively (Table 1). […] Importantly, we identified four peptides that were not included in the training set as physiological binders to the Scrib PDZ domains. The corresponding proteins, namely APC, LPP, VANGL2 and ZO2, were previously reported to interact with Scrib in vivo via its PDZ domains, [36], [37], [38], [39].
Figure 4 Application of DomPep to the prediction of PDZ-binding ligands. ROC curves of DomPep prediction for the three Scrib PDZ-1/2/3 domains using 56 peptides selected from the human protein database as the test set. The respective affinities of the three domains for the 56 peptides were measured by fluorescence polarization (Table 1).

Residues, ends and D or L forms follow the SMILES beside them.

T1 sequence (Q14160 728-815 limits assumed): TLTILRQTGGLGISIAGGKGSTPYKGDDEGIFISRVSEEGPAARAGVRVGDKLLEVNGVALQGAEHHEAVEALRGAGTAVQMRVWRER

Turning to `CC(C)C[C@H](NC(=O)[C@H](CCC(=O)O)NC(=O)[C@H](CCC(=O)O)NC(=O)[C@H](CCCNC(=N)N)NC(=O)[C@@H](NC(=O)[C@H](C)NC(=O)[C@H](CO)NC(=O)[C@@H](NC(=O)[C@H](CCCCN)NC(=O)[C@@H](N)CCC(=O)O)C(C)C)[C@@H](C)O)C(=O)O` (H-EKVSATREEL-OH), the equilibrium dissociation constant (Kd) was over 100 µM on Scrib PDZ-1 domain, over 100 µM at Scrib PDZ-2 domain and 88.1 µM on Scrib PDZ-3 domain.
Turning to `CC(C)C[C@H](NC(=O)[C@@H](N)C(C)C)C(=O)N[C@@H](CCC(N)=O)C(=O)N[C@@H](CCCNC(=N)N)C(=O)N[C@@H](Cc1c[nH]cn1)C(=O)N[C@H](C(=O)N[C@H](C(=O)NCC(=O)N[C@@H](CCCCN)C(=O)N[C@@H](C)C(=O)O)[C@@H](C)O)[C@@H](C)O` [ACBD6] (H-VLQRHTTGKA-OH; N-terminus and C-terminus assumed), the Kd on Scrib PDZ-1 domain, at Scrib PDZ-2 domain and at Scrib PDZ-3 domain was over 100 µM in each case.
Turning to `CC(C)C[C@H](NC(=O)[C@H](CC(C)C)NC(=O)[C@@H](NC(=O)CNC(=O)[C@H](Cc1ccc(O)cc1)NC(=O)[C@H](CC(C)C)NC(=O)[C@H](CCC(N)=O)NC(=O)[C@H](C)NC(=O)[C@@H](N)CCCCN)[C@@H](C)O)C(=O)N[C@@H](CC(N)=O)C(=O)O` [BEGAIN] (H-KAQLYGTLLN-OH; N-terminus and C-terminus assumed), the dissociation constant Kd on Scrib PDZ-1 domain, at Scrib PDZ-2 domain and at Scrib PDZ-3 domain was over 100 µM in each case.
For `CC(C)C[C@H](NC(=O)[C@H](CCC(=O)O)NC(=O)[C@H](CCCNC(=N)N)NC(=O)[C@H](Cc1c[nH]c2ccccc12)NC(=O)[C@@H]1CCCN1C(=O)[C@@H]1CCCN1C(=O)[C@H](CC(=O)O)NC(=O)CNC(=O)[C@H](CCCNC(=N)N)NC(=O)[C@@H]1CCCN1)C(=O)O` [C19orf57] (H-PRGDPPWREL-OH; N-terminus and C-terminus assumed), the equilibrium dissociation constant (Kd) on Scrib PDZ-1 domain, on Scrib PDZ-2 domain and on Scrib PDZ-3 domain was over 100 µM in each case.
For `CSCC[C@H](NC(=O)[C@H](CC(C)C)NC(=O)[C@@H](NC(=O)[C@H](CS)NC(=O)[C@H](CCCCN)NC(=O)CNC(=O)[C@H](CCCCN)NC(=O)[C@@H](NC(=O)[C@H](CCCNC(=N)N)NC(=O)[C@@H](N)CC(=O)O)C(C)C)[C@@H](C)O)C(=O)O` [DIRAS1] (H-DRVKGKCTLM-OH; N-terminus and C-terminus assumed), the dissociation constant (Kd) on Scrib PDZ-1 domain, at Scrib PDZ-2 domain and at Scrib PDZ-3 domain was over 100 µM in each case.
In the case of `CC[C@H](C)[C@H](NC(=O)[C@@H]1CCCN1C(=O)[C@@H](NC(=O)CNC(=O)[C@@H](NC(=O)[C@@H](NC(=O)[C@H](CC(N)=O)NC(=O)[C@@H](NC(=O)[C@H](CCC(N)=O)NC(=O)[C@@H](N)CC(=O)O)C(C)C)[C@@H](C)O)C(C)C)[C@@H](C)CC)C(=O)O` [EPHA2] (H-DQVNTVGIPI-OH; N-terminus and C-terminus assumed), the Kd on Scrib PDZ-1 domain, at Scrib PDZ-2 domain and at Scrib PDZ-3 domain was over 100 µM each time.
For `CC(C)[C@H](NC(=O)[C@@H]1CCCN1C(=O)[C@@H](NC(=O)[C@@H]1CCCN1C(=O)CNC(=O)[C@H](CC(N)=O)NC(=O)[C@H](CCCCN)NC(=O)[C@H](CO)NC(=O)[C@H](CCC(N)=O)NC(=O)[C@@H](N)[C@@H](C)O)C(C)C)C(=O)O` [EPHA3] (H-TQSKNGPVPV-OH), the Kd on Scrib PDZ-1 domain was 129 µM; at Scrib PDZ-2 domain, over 100 µM; on Scrib PDZ-3 domain it was over 100 µM.
In the case of `CC[C@H](C)[C@H](NC(=O)CNC(=O)[C@@H](NC(=O)CNC(=O)[C@H](Cc1c[nH]cn1)NC(=O)[C@H](CC(C)C)NC(=O)[C@H](Cc1c[nH]cn1)NC(=O)[C@@H](N)CC(C)C)[C@@H](C)O)C(=O)N[C@@H](CCC(N)=O)C(=O)N[C@H](C(=O)O)C(C)C` [EPHA7] (H-LHLHGTGIQV-OH; N-terminus and C-terminus assumed), the Kd at Scrib PDZ-1 domain, at Scrib PDZ-2 domain and on Scrib PDZ-3 domain was over 100 µM in each case.
For `CC(C)C[C@H](NC(=O)[C@@H](NC(=O)[C@@H](NC(=O)[C@H](CO)NC(=O)[C@@H]1CCCN1C(=O)[C@H](CC(C)C)NC(=O)[C@H](CCCCN)NC(=O)[C@H](CCCNC(=N)N)NC(=O)[C@@H](NC(=O)[C@@H](N)CCCNC(=N)N)C(C)C)[C@@H](C)O)[C@@H](C)O)C(=O)O` [RPS6KA1] (H-RVRKLPSTTL-OH), the dissociation constant (Kd) at Scrib PDZ-1 domain and on Scrib PDZ-2 domain was over 100 µM in each case.
Take `CSCC[C@H](NC(=O)CN)C(=O)N[C@@H](CCCCN)C(=O)N[C@@H](CCCNC(=N)N)C(=O)N[C@@H](CC(C)C)C(=O)N[C@H](C(=O)N[C@@H](CO)C(=O)N[C@H](C(=O)N[C@@H](CCCNC(=N)N)C(=O)N[C@@H](CC(C)C)C(=O)O)[C@@H](C)O)[C@@H](C)O` [RPS6KA2] (H-GMKRLTSTRL-OH): the Kd at Scrib PDZ-1 domain was over 100 µM; on Scrib PDZ-2 domain it was 62.7 µM.
Consider `CC(C)C[C@H](NC(=O)[C@H](CC(N)=O)NC(=O)[C@H](CCC(=O)O)NC(=O)CNC(=O)[C@@H]1CCCN1C(=O)[C@H](CCC(N)=O)NC(=O)[C@H](Cc1ccc(O)cc1)NC(=O)[C@H](CCC(N)=O)NC(=O)[C@@H]1CCCN1C(=O)[C@@H](N)CCC(=O)O)C(=O)O` [SRC] (H-EPQYQPGENL-OH), for which the dissociation constant Kd at Scrib PDZ-1 domain and on Scrib PDZ-2 domain was over 100 µM throughout.
Consider `CC[C@H](C)[C@H](NC(=O)[C@H](CCC(N)=O)NC(=O)[C@@H](NC(=O)[C@@H](NC(=O)[C@H](Cc1c[nH]cn1)NC(=O)[C@H](CCC(N)=O)NC(=O)CNC(=O)[C@@H]1CCCN1C(=O)[C@H](C)NC(=O)[C@@H]1CCCN1)[C@@H](C)O)[C@@H](C)O)C(=O)O` [STK16] (H-PAPGQHTTQI-OH), for which the equilibrium dissociation constant (Kd) on Scrib PDZ-1 domain and on Scrib PDZ-2 domain was over 100 µM in each case.
On to `CC(C)C[C@H](NC(=O)[C@H](CO)NC(=O)[C@H](CO)NC(=O)[C@H](CCC(=O)O)NC(=O)[C@H](Cc1ccc(O)cc1)NC(=O)[C@H](CO)NC(=O)[C@@H](NC(=O)[C@H](C)NC(=O)[C@@H](NC(=O)[C@@H](N)CCCCN)C(C)C)[C@@H](C)O)C(=O)O` [STK29] (H-KVATSYESSL-OH), for which the equilibrium dissociation constant (Kd) at Scrib PDZ-1 domain and at Scrib PDZ-2 domain was over 100 µM each time.
`CSCC[C@H](NC(=O)[C@H](Cc1ccccc1)NC(=O)[C@H](C)NC(=O)[C@@H](N)Cc1c[nH]c2ccccc12)C(=O)N[C@@H](CCCNC(=N)N)C(=O)N[C@@H](Cc1ccc(O)cc1)C(=O)N[C@@H](CCCNC(=N)N)C(=O)N[C@@H](CCC(N)=O)C(=O)N[C@@H](CCC(N)=O)C(=O)N[C@@H](CC(C)C)C(=O)O` [SYNJ2BP] (H-WAFMRYRQQL-OH): the dissociation constant Kd on Scrib PDZ-1 domain and at Scrib PDZ-2 domain was over 100 µM in each case.
For the compound `CC[C@H](C)[C@H](NC(=O)[C@H](CO)NC(=O)[C@H](CO)NC(=O)[C@H](CCC(=O)O)NC(=O)[C@H](C)NC(=O)[C@H](CO)NC(=O)[C@H](C)NC(=O)[C@@H](NC(=O)[C@H](CC(=O)O)NC(=O)[C@@H](N)C(C)C)[C@@H](C)CC)C(=O)O` [TANK] (H-VDIASAESSI-OH), the Kd was 102 µM on Scrib PDZ-1 domain and over 100 µM on Scrib PDZ-2 domain.
Consider `CC[C@H](C)[C@H](NC(=O)[C@H](CC(=O)O)NC(=O)[C@H](CC(N)=O)NC(=O)[C@H](CC(C)C)NC(=O)[C@H](C)NC(=O)[C@H](CC(N)=O)NC(=O)[C@@H](N)CC(=O)O)C(=O)N[C@H](C(=O)N[C@@H](CO)C(=O)N[C@@H](CC(C)C)C(=O)O)[C@@H](C)O` [TPM2] (H-DNALNDITSL-OH), for which the Kd at Scrib PDZ-1 domain and on Scrib PDZ-2 domain was over 100 µM each time.
For the compound `CC[C@H](C)[C@H](NC(=O)[C@@H](NC(=O)[C@H](CCC(=O)O)NC(=O)[C@H](CO)NC(=O)[C@@H]1CCCN1C(=O)[C@H](CCC(N)=O)NC(=O)[C@H](C)NC(=O)[C@H](CO)NC(=O)[C@@H](N)CO)[C@@H](C)O)C(=O)N[C@@H](CC(C)C)C(=O)O` [ZNF654] (H-SSAQPSETIL-OH), the Kd was over 100 µM on Scrib PDZ-1 domain and 32.1 µM on Scrib PDZ-2 domain.
Taken in the same sequence, the figures for `CC(C)C[C@H](NC(=O)[C@H](CCC(=O)O)NC(=O)[C@@H](NC(=O)[C@H](CC(=O)O)NC(=O)[C@H](Cc1ccc(O)cc1)NC(=O)[C@H](CCCNC(=N)N)NC(=O)[C@H](C)NC(=O)[C@H](CO)NC(=O)[C@@H](N)CCC(N)=O)[C@@H](C)O)C(=O)O` [ZO2] (H-QSARYDTEL-OH) were 16 µM and over 100 µM.
As for `CC(C)C[C@H](NC(=O)[C@H](CC(N)=O)NC(=O)[C@@H](NC(=O)[C@H](CCC(=O)O)NC(=O)[C@H](CC(=O)O)NC(=O)[C@H](Cc1c[nH]c2ccccc12)NC(=O)[C@H](C)NC(=O)[C@@H]1CCCN1C(=O)[C@H](CC(=O)O)NC(=O)[C@@H](N)CC(N)=O)[C@@H](C)O)C(=O)O` [b-PIX] (H-NDPAWDETNL-OH), the dissociation constant (Kd) was 5.3 µM on Scrib PDZ-1 domain and 16.8 µM on Scrib PDZ-2 domain.
